How the values were obtained:
[1] = target: T1, cTnC isolated from cattle cardiac muscle (Bos taurus, UniProt P63315); test: Affinity of Ca^2+ to cTnC by fluorescent probe dansyl chloride labeling; format: binding; conditions: for Influence on the affinity curve of cTnC to Ca^2+: 50 μmol/L; for Effect on the cTnC-Ca^2+ affinity curve: 55 μmol/L (FIG. 4)
T1 construct: cTnC isolated from cattle cardiac muscle; from tissue; host or cells: cattle cardiac muscle
From the text: The effect of PPTA-I on the affinity of Ca^2+ to cTnC isolated from cattle cardiac muscle was studied by fluorescent probe dansyl chloride labeling to discuss the calcium sensitization mechanisms of piperphentonamine hydrochloride, and compared the results to the already known calcium sensitizers MCI-154 and sulmazole (Sul).

[2] = Solubility and stability of piperphentonamine hydrochloride in water for injection; format: physicochemical
From the text: Piperphentonamine hydrochloride with the molecular formula C21H23NO4.HCl has a molecular weight of […], batch No. 2001803, provided by Guangzhou Zhongwei Biotechnology Ltd Company. Its preparation method is described in Chinese patent No. 02125318.8. […] In order to achieve the lyophilized powder for injection with good redissolving ability and stability, piperphentonamine hydrochloride and excipient need to be dissolved in water for injection with pH 1.5 to 5.5 and then lyophilized, especially preferred water for injection with pH 2 to 3.

[3] = conventionally known; cited from earlier work
[4] = test system: cat heart failure model induced by verapamil; test: Cardiac hemodynamic parameters in cat heart failure model induced by verapamil, intravenous administration; format: in vivo; conditions: 0.1 mg/kg; for +dP/dt max, Change, % / Cardiac contractility, Change % / HR, Change % / LVEDP, Change, % / LVSP, Change, % / MAP, Change % / −dP/dt max, Change, %: vs. baseline
Method: To study the therapeutic effect of the novel cardiotonic and vasodilator PPTA-I on heart failure, the cardiac hemodynamic parameters were determined by a polygraph in cat heart failure model induced by verapamil.

[5] = test system: myocardial ischemia-reperfusion injury in cats; test: Myocardial ischemia-reperfusion injury in cats in vivo (coronary artery arrest 30 min, reperfusion 60 min); design: species or system cat; conditions: 1.3 mg/kg
Method: In order to further evaluate the protective effect of PPTA on myocardium injured by ischemia-reperfusion, a pathological model of myocardial ischemia-reperfusion injury in cats in vivo was established by arrest the coronary artery for 30 min, then reperfusion for 60 min, studying the effects on blood biochemistry, myocardium ultrastructure, etc.

[6] = treated by sonication and heating

Compound: piperphentonamine hydrochloride
- Shift of cTnC-Ca^2+ affinity curve ([1]; 15 μmol/L): slightly shifted to the left without statistical significance
- Shift of cTnC-Ca^2+ affinity curve ([1]; 35 μmol/L): shifted to the left with statistical significance
- Shift of cTnC-Ca^2+ affinity curve to the left compared with the control curve ([1]; 55 μmol/L (FIG. 3)): 0.2 pCa
- Stability in water for injection ([2]; easy to degrade and turn yellow): not stable
- Solubility in water for injection with pH 1.5 to 5.5 [2, 6]: easy to be dissolved
- pH of water for injection with the best solubility and stability [2, 6]: 2 to 3
- Solubility in water for injection ([2]; untreated): difficult to be dissolved
- Solubility in water [3]: insoluble or poor soluble in water

Compound: COc1cc([S+](C)[O-])ccc1-c1nc2ncccc2[nH]1 (stereo not drawn) [Sul, sulmazole]
- Influence on the affinity curve of cTnC to Ca^2+ [1]: no significant influence
- Effect on the cTnC-Ca^2+ affinity curve [1]: no significant effect

Compound: Cc1[nH]c(=O)c(C#N)cc1-c1ccncc1 [Milrinone]
- +dP/dt max increased by at most [4]: 61±26%
- Effect on HRs [4]: did not affect
- Effect on LVSP, LVEDP and −dP/dt max [4]: without changing
- MAP decreased by [4]: 10%
- Period of +dP/dt max increase [4]: over 20 minutes
- Period of the effect on MAP and cardiac contractility [4]: 5 min
- +dP/dt max, Change, % ([4]; 2 min): 18 ± 23 %
- Cardiac contractility, Change % ([4]; 2 min): 38 ± 32 # %
- HR, Change % ([4]; 2 min): 0 ± 5%
- LVEDP, Change, % ([4]; 2 min): 1 ± 2%
- LVSP, Change, % ([4]; 2 min): 4 ± 11%
- MAP, Change % ([4]; 2 min): −4 ± 4 %
- −dP/dt max, Change, % ([4]; 2 min): 0 ± 23%
- +dP/dt max, Change, % ([4]; 5 min): 52 ± 24 ### %
- Cardiac contractility, Change % ([4]; 5 min): 92 ± 80 # %
- HR, Change % ([4]; 5 min): 2 ± 15%
- LVEDP, Change, % ([4]; 5 min): 5 ± 16%
- LVSP, Change, % ([4]; 5 min): 5 ± 15%
- MAP, Change % ([4]; 5 min): −10 ± 8 # %
- −dP/dt max, Change, % ([4]; 5 min): 3 ± 19%
- +dP/dt max, Change, % ([4]; 10 min): 61 ± 26 ### %
- Cardiac contractility, Change % ([4]; 10 min): 71 ± 78 %
- HR, Change % ([4]; 10 min): 2 ± 16%
- LVEDP, Change, % ([4]; 10 min): −1 ± 5%
- LVSP, Change, % ([4]; 10 min): 6 ± 17%
- MAP, Change % ([4]; 10 min): −10 ± 6 ## %
- −dP/dt max, Change, % ([4]; 10 min): 11 ± 20%
- +dP/dt max, Change, % ([4]; 15 min): 54 ± 33 ## %
- Cardiac contractility, Change % ([4]; 15 min): 58 ± 74 %
- HR, Change % ([4]; 15 min): 3 ± 16%
- LVEDP, Change, % ([4]; 15 min): −7 ± 16%
- LVSP, Change, % ([4]; 15 min): 3 ± 18%
- MAP, Change % ([4]; 15 min): −10 ± 8 # %
- −dP/dt max, Change, % ([4]; 15 min): 8 ± 23%
- +dP/dt max, Change, % ([4]; 20 min): 61 ± 45 # %
- Cardiac contractility, Change % ([4]; 20 min): 61 ± 69 %
- HR, Change % ([4]; 20 min): −13 ± 37%
- LVEDP, Change, % ([4]; 20 min): 2 ± 11%
- LVSP, Change, % ([4]; 20 min): 4 ± 22%
- MAP, Change % ([4]; 20 min): −8 ± 12%
- −dP/dt max, Change, % ([4]; 20 min): −4 ± 22%

Compound: COc1ccc(CCN(C)CCCC(C#N)(c2ccc(OC)c(OC)c2)C(C)C)cc1OC (stereo not drawn) [verapamil]
- Score of myocardium pathological change ([5]; injury control 2.5 ± 0.55): 1.3 ± 0.18
- Content of cTnI ([5]; serum, injury control 2.3 ± 0.62): 1.4 ± 0.21
- Content of MDA ([5]; serum, injury control 86 ± 17): 65 ± 12 nmol/L
- CPK activity ([5]; serum, injury control 385 ± 75): 271 ± 80

Compound: O=C1CCC(c2ccc(Nc3ccncc3)cc2)=NN1 [MCI-154]
- Influence on the affinity curve of cTnC to Ca^2+ [1]: no significant influence
- Effect on the cTnC-Ca^2+ affinity curve [1]: no significant effect

Source: patent US8513301B2, “Kind of piperphentonamine hydrochloride lyophilized powder for injection and preparation and use thereof” (Guangzhou Zhongwei Biotechnology Ltd., priority 2007, dated 2013)
